31 compounds from US20240287052A1, “NOVEL OXAZOLE DERIVATIVE AND PHARMACEUTICAL COMPOSITION FOR PREVENTING OR TREATING ALLERGIC DISEASES COMPRISING THE SAME” (AZCURIS CO., LTD., priority 2021, published 2024) can be followed below.

Read-outs that look alike come from different tables or passages of the source.

The inhibition is the change of the read-out against control, counted positive when it falls.

The target in the experiment is T1, IL33 and ST2 binding (Homo sapiens, UniProt O95760).
T1 sequence (O95760 112-270 limits assumed): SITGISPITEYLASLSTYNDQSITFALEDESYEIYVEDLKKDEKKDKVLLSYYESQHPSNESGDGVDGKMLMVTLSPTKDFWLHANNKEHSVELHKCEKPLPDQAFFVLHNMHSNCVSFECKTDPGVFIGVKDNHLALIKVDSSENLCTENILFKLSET
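Also: plate ELISA with coated Flag-tagged human IL-33 and His-tagged human ST2, bound ST2 detected by anti-His HRP and TMB absorbance at 450 nm, 2 h compound incubation.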

Method: 100 nM of Flag tagged IL-33 human recombinant protein was prepared in 1× coating buffer (Biolegend) and placed in a 96 well microplate (Coming) using a Multichannel pipette (Gilson) and coated for at least 12 hours at 4° C.
After washing three times with PBST (1×PBS (Welgene), 1% Tween 20 (sigma)), it was reacted with 1% BSA (Bovogen) blocking buffer for 1 hour at room temperature.
Samples containing 200 nM of His-tagged ST2 human recombinant protein and 60 μM or 200 μM Example synthetic compounds were prepared, added in equal volumes, and reacted for at least 2 hours at room temperature.
After washing three times with PBST (1×PBS (Welgene), 1% Tween 20 (sigma)), anti-His HRP (BioLegend) antibody was diluted 5000:1 and reacted for at least 1 hour at room temperature.
After washing three times with PBST (1×PBS (Welgene), 1% Tween 20 (sigma)), TMB substrate solution (Thermo) was added and reacted for more than 5 minutes. The reaction was stopped by adding 1 N HCl (Samchun) and the absorbance value was obtained at 450 nm after orbital shaking for 5 s with a Microplate reader (Tecan, Spark®).
The results derived from the program linked to the microplate reader were analyzed using an Excel program. IL33-ST2 binding rate (binding %) was calculated by averaging the three values obtained in triplicate, subtracting the positive control value, and converting the negative control value to 100%. The inhibition % value of each compound was obtained by subtracting the IL33-ST2 binding % from 100%, and the error range of triplicate was also obtained and reflected in the inhibition graph of the compound.

`COc1ccc(-c2nc(C(=O)N3CCN(CCN(C)C)CC3)c(-c3ccc([N+](=O)[O-])cc3)o2)cc1` [Compound 218, (4-(2-(Dimethylamino)ethyl)piperazin-1-yl)(2-(4-methoxyphenyl)-5-(4-nitrophenyl)oxazol-4-yl)methanone]: the inhibition turned out to be 32% (30 µM) and 39% (100 µM).

`CCOC(=O)c1nc(-c2ccc(C#N)cc2)oc1-c1ccccc1[N+](=O)[O-]` [Compound 80, Ethyl 2-(4-cyanophenyl)-5-(2-nitrophenyl)oxazole-4-carboxylate]: the inhibition reads like this: (30 µM) 37%; (100 µM) 89%.

Regarding `O=C(NCCc1ccc(F)cc1)c1nc(-c2ccc(C(F)(F)F)cc2)oc1-c1ccccc1[N+](=O)[O-]` [Compound 149, N-(4-Fluorophenethyl)-5-(2-nitrophenyl)-2-(4-(trifluoromethyl)phenyl)oxazole-4-carboxamide], the inhibition reads like this: (30 µM) 20%; (100 µM) 19%.

Consider `CC(C)(C)OC(=O)N1CCN(CCNC(=O)c2nc(-c3ccc(C(F)(F)F)cc3)oc2-c2ccccc2[N+](=O)[O-])CC1` [Compound 172, tert-Butyl-4-(2-(5-(2-nitrophenyl)-2-(4-(trifluoromethyl)phenyl)oxazole-4-carboxamido)ethyl)piperazine-1-carboxylate], for which the inhibition (30 µM) was determined as 51% and the inhibition (100 µM) came out at 50%.

Consider `CCOC(=O)c1nc(-c2ccc(OC(F)(F)F)cc2)oc1-c1ccccc1` [Compound 58, Ethyl 5-phenyl-2-(4-(trifluoromethoxy)phenyl)oxazole-4-carboxylate], for which the inhibition by setting is: (30 µM) 44%; (100 µM) 105%.

As to `CN1CCN(C(=O)c2nc(-c3ccc(C(F)(F)F)cc3)oc2-c2ccccc2[N+](=O)[O-])CC1` [Compound 155, (4-Methylpiperazin-1-yl)(5-(2-nitrophenyl)-2-(4-(trifluoromethyl)phenyl)oxazol-4-yl)methanone], the inhibition was -31% (30 µM) and -18% (100 µM).

For `CCN(CC)CCNC(=O)c1nc(-c2ccc(C(C)(C)C)cc2)oc1-c1ccccc1[N+](=O)[O-]` [Compound 270, 2-(4-(tert-Butyl)phenyl)-N-(2-(diethylamino)ethyl)-5-(2-nitrophenyl)oxazole-4-carboxamide], the inhibition is 20% (30 µM) and 37% (100 µM).

On to `CCOC(=O)c1nc(-c2ccc3ccccc3c2)oc1-c1ccccc1[N+](=O)[O-]` [Compound 84, Ethyl 2-(naphthalen-2-yl)-5-(2-nitrophenyl)oxazole-4-carboxylate], for which the inhibition was found to be 20% (30 µM) and 54% (100 µM).

On to `COc1ccc(-c2nc(C(=O)NCCN3CCN(C)CC3)c(-c3ccccc3[N+](=O)[O-])o2)cc1` [Compound 215, 2-(4-Methoxyphenyl)-N-(2-(4-methylpiperazin-1-yl)ethyl)-5-(2-nitrophenyl)oxazole-4-carboxamide], for which the inhibition was -12% (30 µM) and 33% (100 µM).

Take `CSc1ccc(-c2nc(C(=O)NCCN(C)C)c(-c3ccccc3[N+](=O)[O-])o2)cc1` [Compound 273, N-(2-(Dimethylamino)ethyl)-2-(4-(methylthio)phenyl)-5-(2-nitrophenyl)oxazole-4-carboxamide]: the inhibition runs as follows: (30 µM) -25%; (100 µM) -18%.

For `CCOC(=O)c1nc(-c2ccc(F)cc2)oc1-c1ccccc1` [Compound 67, Ethyl 2-(4-fluorophenyl)-5-phenyloxazole-4-carboxylate], the inhibition (30 µM) was 9% and the inhibition (100 µM) is 15%.

`CN(C)CCNC(=O)c1nc(-c2ccc(F)cc2)oc1-c1ccc([N+](=O)[O-])cc1` [Compound 229, N-(2-(Dimethylamino)ethyl)-2-(4-fluorophenyl)-5-(4-nitrophenyl)oxazole-4-carboxamide]: the inhibition is, setting by setting: (30 µM) -54%; (100 µM) -98%.

For the compound `CCOC(=O)c1nc(-c2cccc(OC(F)(F)F)c2)oc1-c1ccccc1` [Compound 56, Ethyl 5-phenyl-2-(3-(trifluoromethoxy)phenyl)oxazole-4-carboxylate], the inhibition by setting is: (30 µM) 40%; (100 µM) 93%.

`CN(C)CCNC(=O)c1nc(-c2cccc(OC(F)(F)F)c2)oc1-c1ccccc1[N+](=O)[O-]` [Compound 201, N-(2-(Dimethylamino)ethyl)-5-(2-nitrophenyl)-2-(3-(trifluoromethoxy)phenyl)oxazole-4-carboxamide]: the inhibition was -7% (30 µM) and -5% (100 µM).

On to `O=C(c1nc(-c2ccc(C(F)(F)F)cc2)oc1-c1ccccc1[N+](=O)[O-])N1CCCCC1` [Compound 144, (5-(2-Nitrophenyl)-2-(4-(trifluoromethyl)phenyl)oxazol-4-yl)(piperidin-1-yl)methanone], for which the inhibition (30 µM) was -19% and the inhibition (100 µM) is -34%.

For the compound `CN(C)CCNC(=O)c1nc(-c2cc(F)cc(F)c2)oc1-c1ccccc1` [Compound 235, 2-(3,5-Difluorophenyl)-N-(2-(dimethylamino)ethyl)-5-phenyloxazole-4-carboxamide], the inhibition (30 µM) amounted to 3% and the inhibition (100 µM) was determined as 36%.

For `CN1CCN(CCNC(=O)c2nc(-c3ccc(C(F)(F)F)cc3)oc2-c2ccccc2)CC1` [Compound 127, N-(2-(4-Methylpiperazin-1-yl)ethyl)-5-phenyl-2-(4-(trifluoromethyl)phenyl)oxazole-4-carboxamide], the inhibition reads like this: (30 µM) -24%; (100 µM) -5%.

With `COc1cccc(-c2nc(C(=O)NCCN(C)C)c(-c3ccccc3[N+](=O)[O-])o2)c1` [Compound 210, N-(2-(Dimethylamino)ethyl)-2-(3-methoxyphenyl)-5-(2-nitrophenyl)oxazole-4-carboxamide], the inhibition is -11% (30 µM) and -19% (100 µM).

For the compound `COc1ccc(-c2nc(C(=O)NCCN3CCN(C)CC3)c(-c3ccc([N+](=O)[O-])cc3)o2)cc1` [Compound 219, 2-(4-methoxyphenyl)-N-(2-(4-methylpiperazin-1-yl)ethyl)-5-(4-nitrophenyl)oxazole-4-carboxamide], the inhibition amounted to 11% (30 µM) and 44% (100 µM).

As to `CN1CCN(CCNC(=O)c2nc(-c3ccc(C4CC4)cc3)oc2-c2ccccc2)CC1` [Compound 280, 2-(4-Cyclopropylphenyl)-N-(2-(4-Methylpiperazin-1-yl)ethyl)-5-phenyloxazole-4-carboxamide], the inhibition was 2% (30 µM) and 0% (100 µM).

For `CN1CCN(CCNC(=O)c2nc(-c3ccc(F)c(F)c3)oc2-c2ccccc2[N+](=O)[O-])CC1` [Compound 234, 2-(3,4-Difluorophenyl)-N-(2-(4-methylpiperazin-1-yl)ethyl)-5-(2-nitrophenyl)oxazole-4-carboxamide], the inhibition by setting is: (30 µM) 13%; (100 µM) 19%.

On to `O=C(c1nc(-c2ccc(C(F)(F)F)cc2)oc1-c1ccccc1[N+](=O)[O-])N1CCCC1` [Compound 138, (5-(2-Nitrophenyl)-2-(4-(trifluoromethyl)phenyl)oxazol-4-yl)(pyrrolidin-1-yl)methanone], for which the inhibition came to 6% (30 µM) and 11% (100 µM).

In the case of `CN(C)CCNC(=O)c1nc(-c2ccc(F)cc2)oc1-c1ccccc1[N+](=O)[O-]` [Compound 226, N-(2-(Dimethylamino)ethyl)-2-(4-fluorophenyl)-5-(2-nitrophenyl)oxazole-4-carboxamide], the inhibition is, setting by setting: (30 µM) -25%; (100 µM) -8%.

Turning to `COc1ccc(-c2nc(C(=O)NCCN3CCN(C)CC3)c(-c3ccccc3)o2)cc1` [Compound 213, 2-(4-Methoxyphenyl)-N-(2-(4-methylpiperazin-1-yl)ethyl)-5-phenyloxazole-4-carboxamide], the inhibition (30 µM) is -34% and the inhibition (100 µM) is -9%.

`CCOC(=O)c1nc(-c2cccc(C(F)(F)F)c2)oc1-c1ccccc1` [Compound 29, Ethyl 5-phenyl-2-(3-(trifluoromethyl)phenyl)oxazole-4-carboxylate]: the inhibition (30 µM) worked out at 19% and the inhibition (100 µM) turned out to be 33%.

In the case of `CN1CCN(CCNC(=O)c2nc(-c3ccccc3C(F)(F)F)oc2-c2ccccc2[N+](=O)[O-])CC1` [Compound 120, N-(2-(4-Methylpiperazin-1-yl)ethyl)-5-(2-nitrophenyl)-2-(2-(trifluoromethyl)phenyl)oxazole-4-carboxamide], the inhibition is 7% (30 µM) and 40% (100 µM).

For the compound `CN1CCN(CCNC(=O)c2nc(-c3cccc(F)c3)oc2-c2ccccc2[N+](=O)[O-])CC1` [Compound 223, 2-(3-Fluorophenyl)-N-(2-(4-methylpiperazin-1-yl)ethyl)-5-(2-nitrophenyl)oxazole-4-carboxamide], the inhibition reads like this: (30 µM) 29%; (100 µM) 38%.

As for `CCOC(=O)c1nc(-c2ccc(C(F)(F)F)cc2)oc1-c1cccc(NC(C)=O)c1` [Compound 106, Ethyl 5-(3-acetamidophenyl)-2-(4-(trifluoromethyl)phenyl)oxazole-4-carboxylate], the inhibition was -20% (30 µM) and -2% (100 µM).

With `COc1ccc(-c2nc(C(=O)N3CCN(CCN(C)C)CC3)c(-c3ccccc3[N+](=O)[O-])o2)cc1` [Compound 216, (4-(2-(Dimethylamino)ethyl)piperazin-1-yl)(2-(4-methoxyphenyl)-5-(2-nitrophenyl)oxazol-4-yl)methanone], the inhibition by setting is: (30 µM) 46%; (100 µM) 84%.

In the case of `CN1CCN(CCNC(=O)c2nc(-c3ccc(C#N)cc3)oc2-c2ccccc2)CC1` [Compound 250, 2-(4-Cyanophenyl)-N-(2-(4-methylpiperazin-1-yl)ethyl)-5-phenyloxazole-4-carboxamide], the inhibition reads like this: (30 µM) 14%; (100 µM) 9%.

On to `CCOC(=O)c1nc(-c2ccccc2C(F)(F)F)oc1-c1ccccc1` [Compound 27, Ethyl 5-phenyl-2-(2-(trifluoromethyl)phenyl)oxazole-4-carboxylate], for which the inhibition was 34% (30 µM) and 84% (100 µM).
